Key:
[1] = test system: LPS-induced TNFα in monocytes; test: Monocytes assay: LPS-triggered TNFα (ELISA); assay type: cell-based, human; conditions: Homo sapiens, Monocyte, LPS-triggered TNFα inhibition
Procedure, shortened: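 TNFα secretion was triggered with 200 ng/mL LPS for 4 h in human blood CD14+ monocytes after 1 h compound pretreatment at 37 °C, with 0.2% final DMSO. Supernatants were analysed by streptavidin-HRP/luminol ELISA, and percentage inhibition at each concentration was derived relative to control wells.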

SIK3 = biological target: T1, SIK3 (Homo sapiens, UniProt Q9Y2K2); test: ADP-Glo kinase assay, SIK3; assay type: biochemical
T1 construct: purchased SignalChem S12-11G-100
Procedure, shortened: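 Steps: add enzyme–substrate mixture; start with diluted ATP; incubate RT 120 min; add ADP-Glo Reagent to terminate and remove unconsumed ATP, 40 min; add detection reagent, 30 min; read luminescence. DMSO at 1% and staurosporine at 10 μM (final) define assay windows.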

[2] = test system: LPS triggered IL-10 secretion in monocytes; test: Monocytes assay: LPS-triggered IL-10 (ELISA); assay type: cell-based, human; conditions: Homo sapiens, Monocyte, LPS-triggered IL-10 induction, median maximal fold change vs LPS only, read-out: IL-10 FCmax median
Procedure, shortened: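 CD14+ monocytes bead-isolated from human PBMCs, pretreated with compound 1 h at 37 °C (0.2% DMSO), then stimulated with LPS 200 ng/mL for 4 h. Supernatant IL-10 measured by chemiluminescent sandwich ELISA; fold change versus LPS only per concentration, reported as maximal fold change (FCmax).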

T1 sequence (Q9Y2K2 59-365 limits assumed): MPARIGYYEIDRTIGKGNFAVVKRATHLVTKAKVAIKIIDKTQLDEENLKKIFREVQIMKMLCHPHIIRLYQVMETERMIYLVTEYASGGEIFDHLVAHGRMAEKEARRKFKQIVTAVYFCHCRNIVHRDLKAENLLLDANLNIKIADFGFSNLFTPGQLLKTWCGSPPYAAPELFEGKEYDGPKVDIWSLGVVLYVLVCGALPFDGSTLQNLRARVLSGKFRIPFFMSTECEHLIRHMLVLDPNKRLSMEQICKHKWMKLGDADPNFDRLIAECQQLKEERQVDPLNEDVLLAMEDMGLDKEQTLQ

Row | SMILES | EC50 [1] | IC50 (SIK3) | maximal fold induction [2]
1 | COc1cc(-c2cnn3cc(C4(C(N)=O)CCC4)ccc23)cc(OC(F)F)c1C(=O)N[C@@H]1C[C@@H]1F [Cpd 254, 4-[6-(1-carbamoylcyclobutyl)pyrazolo[1,5-a]pyridin-3-yl]-2-(difluoromethoxy)-N-[(1R,2S)-2-fluorocyclopropyl]-6-methoxy-benzamide] | 100 to 1000 nM | 0.01 to 10 nM | < 1.5
2 | COc1cc(-c2cnn3cc(C(C)(C)O)ccc23)cc(OC(F)F)c1C(=O)N[C@@H]1C[C@@H]1F [Cpd 227, 2-(difluoromethoxy)-N-[(1R,2S)-2-fluorocyclopropyl]-4-[6-(1-hydroxy-1-methyl-ethyl)pyrazolo[1,5-a]pyridin-3-yl]-6-methoxy-benzamide] | 100 to 1000 nM | 0.01 to 10 nM | < 1.5
3 | COc1cc(-c2cnc3cc(C4(C#N)COC4)ccn23)cc(OC(F)F)c1C(=O)N[C@@H]1C[C@@H]1F [Cpd 130, 4-[7-(3-cyanooxetan-3-yl)imidazo[1,2-a]pyridin-3-yl]-2-(difluoromethoxy)-N-[(1R,2S)-2-fluorocyclopropyl]-6-methoxy-benzamide] | 100 to 1000 nM | 0.01 to 10 nM | 1.5 to 4.5
4 | COc1cc(-c2cnc3cc(C4(C#N)CCOC4)ccn23)cc(OC(F)F)c1C(=O)NC1CC1 (stereo not drawn) [Cpd 123, 4-[7-(3-cyanotetrahydrofuran-3-yl)imidazo[1,2-a]pyridin-3-yl]-N-cyclopropyl-2-(difluoromethoxy)-6-methoxy-benzamide] | 100 to 1000 nM | 10 to 100 nM | 1.5 to 4.5
5 | COc1cc(-c2cnc3cc(C4COC4)ccn23)cc(OC(F)F)c1C(=O)NC1CC1 [Cpd 174, N-cyclopropyl-2-(difluoromethoxy)-6-methoxy-4-[7-(oxetan-3-yl)imidazo[1,2-a]pyridin-3-yl]benzamide] | 100 to 1000 nM | 0.01 to 10 nM | 1.5 to 4.5
6 | COc1cc(-c2cnn3cc(C(C)(C)C#N)cnc23)cc(OC(F)F)c1C(=O)N[C@@H]1C[C@@H]1F [Cpd 231, 4-[6-(1-cyano-1-methyl-ethyl)pyrazolo[1,5-a]pyrimidin-3-yl]-2-(difluoromethoxy)-N-[(1R,2S)-2-fluorocyclopropyl]-6-methoxy-benzamide] | 100 to 1000 nM | 0.01 to 10 nM | < 1.5
7 | COc1cc(-c2cnc3cc(C(O)CC#N)ccn23)cc(OC(F)F)c1C(=O)NC1CC1 (stereo not drawn) [Cpd 175, 4-[7-(2-cyano-1-hydroxy-ethyl)imidazo[1,2-a]pyridin-3-yl]-N-cyclopropyl-2-(difluoromethoxy)-6-methoxy-benzamide] | 1000 to 5000 nM | 10 to 100 nM | 1.5 to 4.5
8 | COc1cc(-c2cnn3cc(C4(N)CCC4)ccc23)cc(OC(F)F)c1C(=O)N[C@@H]1C[C@@H]1F [Cpd 261, 4-[6-(1-aminocyclobutyl)pyrazolo[1,5-a]pyridin-3-yl]-2-(difluoromethoxy)-N-[(1R,2S)-2-fluorocyclopropyl]-6-methoxy-benzamide] | 100 to 1000 nM | 0.01 to 10 nM | < 1.5
9 | COc1cc(-c2cnc3cc(C4(F)COC4)ccn23)cc(OC(F)F)c1C(=O)NC1CC1 [Cpd 207, N-cyclopropyl-2-(difluoromethoxy)-4-[7-(3-fluorooxetan-3-yl)imidazo[1,2-a]pyridin-3-yl]-6-methoxy-benzamide] | 100 to 1000 nM | 0.01 to 10 nM | < 1.5
10 | COc1cc(-c2cnc3cc(C(C)(C)C(C)O)ccn23)cc(OC(F)F)c1C(=O)NC1CC1 (stereo not drawn) [Cpd 172, N-cyclopropyl-2-(difluoromethoxy)-4-[7-(2-hydroxy-1,1-dimethyl-propyl)imidazo[1,2-a]pyridin-3-yl]-6-methoxy-benzamide] | 100 to 1000 nM | 10 to 100 nM | < 1.5
11 | COc1cc(-c2cnc3cc(C(C)(O)C(F)(F)F)ccn23)cc(OC(F)F)c1C(=O)NC1CC1 (stereo not drawn) [Cpd 129, N-cyclopropyl-2-(difluoromethoxy)-6-methoxy-4-[7-(2,2,2-trifluoro-1-hydroxy-1-methyl-ethyl)imidazo[1,2-a]pyridin-3-yl]benzamide] | 100 to 1000 nM | 10 to 100 nM | 1.5 to 4.5
12 | COc1cc(-c2cnc3cc(C(C)(C)CO)ccn23)cc(OC(F)F)c1C(=O)NC1CC1 [Cpd 150, N-cyclopropyl-2-(difluoromethoxy)-4-[7-(2-hydroxy-1,1-dimethyl-ethyl)imidazo[1,2-a]pyridin-3-yl]-6-methoxy-benzamide] | 100 to 1000 nM | 0.01 to 10 nM | < 1.5
13 | COc1cc(-c2cnc3cc(C(C)(C)C#N)ccn23)cc(OC(F)F)c1C(=O)N[C@@H]1C[C@@H]1F [Cpd 79, 4-[7-(1-cyano-1-methyl-ethyl)imidazo[1,2-a]pyridin-3-yl]-2-(difluoromethoxy)-N-[(1R,2S)-2-fluorocyclopropyl]-6-methoxy-benzamide] | 0.1 to 100 nM | 0.01 to 10 nM | 1.5 to 4.5
14 | COc1cc(-c2cnc3cc(C4CCC4)c(F)cn23)cc(OC(F)F)c1C(=O)NC1CC1 [Cpd 168, 4-(7-cyclobutyl-6-fluoro-imidazo[1,2-a]pyridin-3-yl)-N-cyclopropyl-2-(difluoromethoxy)-6-methoxy-benzamide] | 100 to 1000 nM | 0.01 to 10 nM | 1.5 to 4.5
15 | COc1cc(-c2cnn3cc(C(C)(C)CN4CCOCC4)ccc23)cc(OC(F)F)c1C(=O)N[C@@H]1C[C@@H]1F [Cpd 269, 2-(difluoromethoxy)-4-[6-(1,1-dimethyl-2-morpholino-ethyl)pyrazolo[1,5-a]pyridin-3-yl]-N-[(1R,2S)-2-fluorocyclopropyl]-6-methoxy-benzamide] | 100 to 1000 nM | 0.01 to 10 nM | 1.5 to 4.5
16 | COc1cc(-c2cnn3cc(C4COC4)ccc23)cc(OC(F)F)c1C(=O)N[C@@H]1C[C@@H]1F [Cpd 218, 2-(difluoromethoxy)-N-[(1R,2S)-2-fluorocyclopropyl]-6-methoxy-4-[6-(oxetan-3-yl)pyrazolo[1,5-a]pyridin-3-yl]benzamide] | 0.1 to 100 nM | 0.01 to 10 nM | 1.5 to 4.5
17 | COc1cc(-c2cnn3cc(C(C)(C)N)ccc23)cc(OC(F)F)c1C(=O)N[C@@H]1C[C@@H]1F [Cpd 256, 4-[6-(1-amino-1-methyl-ethyl)pyrazolo[1,5-a]pyridin-3-yl]-2-(difluoromethoxy)-N-[(1R,2S)-2-fluorocyclopropyl]-6-methoxy-benzamide] | 100 to 1000 nM | 0.01 to 10 nM | < 1.5
18 | COCC(C)(C#N)c1ccn2c(-c3cc(OC)c(C(=O)NC4CC4)c(OC(F)F)c3)cnc2c1 (stereo not drawn) [Cpd 195, 4-[7-(1-cyano-2-methoxy-1-methyl-ethyl)imidazo[1,2-a]pyridin-3-yl]-N-cyclopropyl-2-(difluoromethoxy)-6-methoxy-benzamide] | 100 to 1000 nM | 10 to 100 nM | < 1.5
19 | COc1cc(-c2cnn3cc(C(C)(C)C#N)ccc23)cc(OC(F)F)c1C(=O)NC1CC1 [Cpd 208, 4-[6-(1-cyano-1-methyl-ethyl)pyrazolo[1,5-a]pyridin-3-yl]-N-cyclopropyl-2-(difluoromethoxy)-6-methoxy-benzamide] | 0.1 to 100 nM | 10 to 100 nM | < 1.5
20 | COc1cc(-c2cnc3cc(C4(O)CCC4)ccn23)cc(OC(F)F)c1C(=O)NC1CC1 [Cpd 173, N-cyclopropyl-2-(difluoromethoxy)-4-[7-(1-hydroxycyclobutyl)imidazo[1,2-a]pyridin-3-yl]-6-methoxy-benzamide] | 100 to 1000 nM | 10 to 100 nM | 1.5 to 4.5
21 | COc1cc(-c2cnc3cc(C(C)(C)O)ccn23)cc(OC(F)F)c1C(=O)NC1CC1 [Cpd 35, N-cyclopropyl-2-(difluoromethoxy)-4-[7-(1-hydroxy-1-methyl-ethyl)imidazo[1,2-a]pyridin-3-yl]-6-methoxy-benzamide] | 100 to 1000 nM | 10 to 100 nM | 1.5 to 4.5
22 | CCC(C)(O)c1ccn2c(-c3cc(OC)c(C(=O)NC4CC4)c(OC(F)F)c3)cnc2c1 (stereo not drawn) [Cpd 137, N-cyclopropyl-2-(difluoromethoxy)-4-[7-(1-hydroxy-1-methyl-propyl)imidazo[1,2-a]pyridin-3-yl]-6-methoxy-benzamide] | 100 to 1000 nM | 10 to 100 nM | < 1.5
23 | COc1cc(-c2cnn3cc(C(C)(C)CO)ccc23)cc(OC(F)F)c1C(=O)NC1CC1 [Cpd 236, N-cyclopropyl-2-(difluoromethoxy)-4-[6-(2-hydroxy-1,1-dimethyl-ethyl)pyrazolo[1,5-a]pyridin-3-yl]-6-methoxy-benzamide] | 100 to 1000 nM | 10 to 100 nM | < 1.5
24 | COc1cc(-c2cnn3cc(C4COCCO4)ccc23)cc(OC(F)F)c1C(=O)NC1CC1 (stereo not drawn) [Cpd 232, N-cyclopropyl-2-(difluoromethoxy)-4-[6-(1,4-dioxan-2-yl)pyrazolo[1,5-a]pyridin-3-yl]-6-methoxy-benzamide] | 100 to 1000 nM | 0.01 to 10 nM | < 1.5
25 | COc1cc(-c2cnc3cc(C4(O)CCC4)ccn23)cc(OC(F)F)c1C(=O)N[C@@H]1C[C@@H]1F [Cpd 205, 2-(difluoromethoxy)-N-[(1R,2S)-2-fluorocyclopropyl]-4-[7-(1-hydroxycyclobutyl)imidazo[1,2-a]pyridin-3-yl]-6-methoxy-benzamide] | 100 to 1000 nM | 0.01 to 10 nM | 1.5 to 4.5

— US12391679B2, “Benzamide-substituted bicyclic imidazo- and pyrazolo-fused -pyridine, -pyrimide, and -pyridazine compounds for treatment of inflammatory diseases” (ONCO3R Therapeutics BV, priority 2019, dated 2025)
